Results: PubChem BioAssay AID248 (DTP/NCI, 2004)
Where “and” joins values, the source holds several entries; their conditions need not be identical. Identical values can stand only once. Inconclusive results and toxic doses are left out. No stated cut-off is given here; in the data, active means T/C of 150% or more; inactive means T/C below 125%.

Test system: L1210 leukemia ip in BDF1 mice, survival T/C
Test: NCI In Vivo Anticancer Drug Screen. Data for tumor model L1210 Leukemia (intraperitoneal) in B6D2F1 (BDF1) mice
Settings: endpoint: mean survival time, higher = longer survival
Summary of the method: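 Tumor was transplanted into mice, which were then dosed with test compound or vehicle alone. Survival was recorded for each group, and the treated figure was expressed relative to the control figure.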

[1] = dose: 100.0 mg/kg/injection, schedule: Q01DX009 (ip), vehicle: saline
[2] = dose: 100.0 mg/kg/injection, schedule: Q04DX003 (ip), vehicle: saline
[3] = dose: 100.0 mg/kg/injection, schedule: Q04DX002 (ip), vehicle: Klucel (hydroxypropylcellulose) (HPC)
[4] = dose: 200.0 mg/kg/injection, schedule: Q04DX002 (ip), vehicle: Klucel (hydroxypropylcellulose) (HPC)
[5] = dose: 400.0 mg/kg/injection, schedule: Q04DX002 (ip), vehicle: Klucel (hydroxypropylcellulose) (HPC)
[6] = dose: 100.0 mg/kg/injection, schedule: Q01DX009 (ip), vehicle: saline with Tween-80
[7] = dose: 50.0 mg/kg/injection, schedule: Q01DX009 (ip), vehicle: saline with Tween-80
[8] = dose: 200.0 mg/kg/injection, schedule: Q04DX003 (ip), vehicle: saline
[9] = dose: 400.0 mg/kg/injection, schedule: Q04DX003 (ip), vehicle: saline
[10] = dose: 100.0 mg/kg/injection, schedule: Q01DX009 (ip), vehicle: Klucel (hydroxypropylcellulose) (HPC)
[11] = dose: 100.0 mg/kg/injection, schedule: Q04DX003 (ip), vehicle: Klucel (hydroxypropylcellulose) (HPC)
[12] = dose: 200.0 mg/kg/injection, schedule: Q01DX009 (ip), vehicle: Klucel (hydroxypropylcellulose) (HPC)
[13] = dose: 200.0 mg/kg/injection, schedule: Q04DX003 (ip), vehicle: Klucel (hydroxypropylcellulose) (HPC)
[14] = dose: 400.0 mg/kg/injection, schedule: Q01DX009 (ip), vehicle: Klucel (hydroxypropylcellulose) (HPC)
[15] = dose: 400.0 mg/kg/injection, schedule: Q04DX003 (ip), vehicle: Klucel (hydroxypropylcellulose) (HPC)

Measured: T/C

CC(C)CCOC(CN)C(Cl)(Cl)Cl (stereo not drawn)
inactive: dose: 25.0 mg/kg/injection, schedule: Q01DX009 (ip), vehicle: saline 96 % of control and 107 % of control | dose: 25.0 mg/kg/injection, schedule: Q04DX002 (ip), vehicle: saline 98 % of control and 106 % of control | dose: 25.0 mg/kg/injection, schedule: Q04DX003 (ip), vehicle: saline 118 % of control | dose: 50.0 mg/kg/injection, schedule: Q01DX009 (ip), vehicle: saline 96 % of control and 100 % of control | dose: 50.0 mg/kg/injection, schedule: Q04DX002 (ip), vehicle: saline 95 % of control | dose: 50.0 mg/kg/injection, schedule: Q04DX003 (ip), vehicle: saline 102 % of control | [1] 98 % of control and 100 % of control | [2] 96 % of control and 109 % of control

COc1c2ccc(-c3ccccc3)oc-2cc(=O)c1C
inactive: [3] 104 % of control | [4] 96 % of control | [5] 93 % of control

COc1ccc(C(=O)CC(C#N)c2ccc3c(c2)OCO3)cc1OC (stereo not drawn)
inactive: [6] 94 % of control | dose: 200.0 mg/kg/injection, schedule: Q01DX009 (ip), vehicle: saline with Tween-80 94 % of control | dose: 400.0 mg/kg/injection, schedule: Q01DX009 (ip), vehicle: saline with Tween-80 96 % of control

COc1cc(C=O)cc(I)c1O
inactive: dose: 12.5 mg/kg/injection, schedule: Q01DX009 (ip), vehicle: saline with Tween-80 94 % of control | dose: 25.0 mg/kg/injection, schedule: Q01DX009 (ip), vehicle: saline with Tween-80 94 % of control | [7] 91 % of control

FC(F)(F)C(Cl)(c1ccc(Cl)cc1)c1ccc(Cl)cc1
inactive: dose: 100.0 mg/kg/injection, schedule: Q04DX003 (sc), vehicle: olive oil, sesame oil, peanut oil 102 % of control | dose: 400.0 mg/kg/injection, schedule: Q04DX003 (sc), vehicle: olive oil, sesame oil, peanut oil 100 % of control

CC1CC(=O)C(CN(C)C)C(C)(C)C1 (stereo not drawn)
inactive: dose: 75.0 mg/kg/injection, schedule: Q01DX001 (ip), vehicle: saline 106 % of control | dose: 150.0 mg/kg/injection, schedule: Q01DX001 (ip), vehicle: saline 100 % of control

Cc1cc(C)n(/N=C/c2ccc(N(C)C)cc2)c(=O)c1C#N
inactive: [2] 95 % of control | [8] 95 % of control | [9] 95 % of control

CNC(=S)Nc1ncn[nH]1
inactive: [2] 94 % of control | [8] 100 % of control | [9] 86 % of control

CNC(=O)C(C)(C)c1ccccc1
inactive: [10] 97 % of control | [11] 96 % of control | [12] 95 % of control | [13] 95 % of control | [14] 97 % of control | [15] 95 % of control

O=C(O)CCCC1CCc2ccccc2C1 (stereo not drawn)
inactive: dose: 100.0 mg/kg/injection, schedule: Q01DX001 (ip), vehicle: Klucel (hydroxypropylcellulose) (HPC) 104 % of control | dose: 200.0 mg/kg/injection, schedule: Q01DX001 (ip), vehicle: Klucel (hydroxypropylcellulose) (HPC) 102 % of control | dose: 400.0 mg/kg/injection, schedule: Q01DX001 (ip), vehicle: Klucel (hydroxypropylcellulose) (HPC) 103 % of control

CCCCCCCCCCCCCCCC(=O)N(CCC#N)CCCCCCCCCN(CCC#N)C(=O)CCCCCCCCCCCCCCC
inactive: [1] 86 % of control | [2] 94 % of control | [8] 87 % of control | dose: 400.0 mg/kg/injection, schedule: Q01DX009 (ip), vehicle: saline 91 % of control | [9] 92 % of control

CC1(C)CCOc2ccccc21
inactive: [7] 88 % of control | [6] 94 % of control

CS(=O)(=O)NC1=NCCN1[N+](=O)[O-]
inactive: dose: 10.0 mg/kg/injection, schedule: Q01DX009 (ip), vehicle: Klucel (hydroxypropylcellulose) (HPC) 88 % of control | dose: 20.0 mg/kg/injection, schedule: Q01DX009 (ip), vehicle: Klucel (hydroxypropylcellulose) (HPC) 91 % of control | dose: 20.0 mg/kg/injection, schedule: Q04DX003 (ip), vehicle: Klucel (hydroxypropylcellulose) (HPC) 98 % of control | dose: 40.0 mg/kg/injection, schedule: Q01DX009 (ip), vehicle: Klucel (hydroxypropylcellulose) (HPC) 98 % of control | dose: 40.0 mg/kg/injection, schedule: Q04DX003 (ip), vehicle: Klucel (hydroxypropylcellulose) (HPC) 101 % of control

CC1(C)CC(=O)C(N=Nc2ccccc2)=C(O)C1
inactive: [3] 105 % of control | [4] 108 % of control | [5] 94 % of control

Oc1ccc(C2C=CCC2)cc1C1C=CCC1 (stereo not drawn)
inactive: [10] 105 % of control | [11] 100 % of control | [12] 100 % of control | [13] 96 % of control | [14] 94 % of control | [15] 109 % of control

COC1C(OC(N)=O)C(O)C(Oc2ccc3c(O)c(N)c(=O)oc3c2C)OC1(C)C (stereo not drawn)
inactive: dose: 37.5 mg/kg/injection, schedule: Q01DX009 (ip), vehicle: Klucel (hydroxypropylcellulose) (HPC) 98 % of control | dose: 75.0 mg/kg/injection, schedule: Q01DX009 (ip), vehicle: Klucel (hydroxypropylcellulose) (HPC) 101 % of control | dose: 150.0 mg/kg/injection, schedule: Q01DX009 (ip), vehicle: Klucel (hydroxypropylcellulose) (HPC) 104 % of control | dose: 300.0 mg/kg/injection, schedule: Q01DX009 (ip), vehicle: Klucel (hydroxypropylcellulose) (HPC) 101 % of control

C/C=C/C=C/C(=O)N(C)c1ccccc1
inactive: dose: 50.0 mg/kg/injection, schedule: Q01DX001 (ip), vehicle: carboxymethylcellulose (CMC) 111 % of control | dose: 100.0 mg/kg/injection, schedule: Q01DX001 (ip), vehicle: carboxymethylcellulose (CMC) 103 % of control | dose: 200.0 mg/kg/injection, schedule: Q01DX001 (ip), vehicle: carboxymethylcellulose (CMC) 103 % of control | dose: 400.0 mg/kg/injection, schedule: Q01DX001 (ip), vehicle: carboxymethylcellulose (CMC) 100 % of control

c1ccc2c3c([nH]c2c1)C1CC2CC(C1)CC3C2
inactive: dose: 100.0 mg/kg/injection, schedule: Q04DX003 (ip), vehicle: alcohol 105 % of control | dose: 200.0 mg/kg/injection, schedule: Q04DX003 (ip), vehicle: alcohol 96 % of control | dose: 400.0 mg/kg/injection, schedule: Q04DX003 (ip), vehicle: alcohol 96 % of control

O=C1NC(=O)C(c2ccc(C(=O)O)cc2)N1 (stereo not drawn)
inactive: dose: 50.0 mg/kg/injection, schedule: Q01DX001 (ip), vehicle: saline 107 % of control | dose: 100.0 mg/kg/injection, schedule: Q01DX001 (ip), vehicle: saline 105 % of control | dose: 200.0 mg/kg/injection, schedule: Q01DX001 (ip), vehicle: saline 100 % of control | dose: 400.0 mg/kg/injection, schedule: Q01DX001 (ip), vehicle: saline 96 % of control

CCCCCC(C)O[Si](C)Oc1ccccc1 (stereo not drawn)
inactive: dose: 100.0 mg/kg/injection, schedule: Q04DX003 (ip), vehicle: saline with Tween-80 100 % of control | dose: 200.0 mg/kg/injection, schedule: Q04DX003 (ip), vehicle: saline with Tween-80 100 % of control | dose: 400.0 mg/kg/injection, schedule: Q04DX003 (ip), vehicle: saline with Tween-80 91 % of control

COC1CC(C)C(Cl)C(C)C1/C=C/C(=O)O (stereo not drawn)
inactive: dose: 50.0 mg/kg/injection, schedule: Q01DX001 (ip), vehicle: saline with Tween-80 101 % of control | dose: 100.0 mg/kg/injection, schedule: Q01DX001 (ip), vehicle: saline with Tween-80 94 % of control | dose: 200.0 mg/kg/injection, schedule: Q01DX001 (ip), vehicle: saline with Tween-80 94 % of control
